Article PMC5218480 (PLoS ONE, 2017)

Test system: MV-4-11 cells
Assay: Gene expression microarray analysis (Affymetrix PrimeView) and GSEA
Assay type: cell-based, human
Set-up: RFU PODN (11730768_x_at) / Fold change /veh PODN (11730768_x_at) / RFU LINC00158 (11744669_a_at) / Fold change /veh LINC00158 (11744669_a_at) / RFU DUSP10 (11751237_a_at) / Fold change /veh DUSP10 (11751237_a_at) / RFU ID3 (11757404_x_at) / Fold change /veh ID3 (11757404_x_at) / RFU PLEKHG5 (11737974_s_at) / Fold change /veh PLEKHG5 (11737974_s_at) / RFU LRRC4B (11730491_at) / Fold change /veh LRRC4B (11730491_at) / RFU GIMAP4 (11747438_a_at) / Fold change /veh GIMAP4 (11747438_a_at) / RFU KRT8 (11758183_x_at) / Fold change /veh KRT8 (11758183_x_at) / RFU CNN1 (11734310_a_at) / Fold change /veh CNN1 (11734310_a_at) / RFU VPS37D (11726825_at) / Fold change /veh VPS37D (11726825_at) / RFU C10orf10 (11716522_x_at) / Fold change /veh C10orf10 (11716522_x_at) / RFU KIR2DL2 /// KIR2DL4 /// KIR2DL5A /// KIR2DL5B /// KIR2DS1 /// KIR2DS2 /// KIR2DS3 /// KIR2DS4 /// KIR3DL3 /// KIR3DL3 /// KIR3DS1 (11738374_at) / Fold change /veh KIR2DL2 /// KIR2DL4 /// KIR2DL5A /// KIR2DL5B /// KIR2DS1 /// KIR2DS2 /// KIR2DS3 /// KIR2DS4 /// KIR3DL3 /// KIR3DL3 /// KIR3DS1 (11738374_at) / RFU C1QL1 (11718748_at) / Fold change /veh C1QL1 (11718748_at) / RFU TMPRSS4 (11747572_a_at) / Fold change /veh TMPRSS4 (11747572_a_at) / RFU HAMP (11756126_x_at) / Fold change /veh HAMP (11756126_x_at) / RFU RNFT2 (11725882_a_at) / Fold change /veh RNFT2 (11725882_a_at) / RFU NR4A2 (11747474_a_at) / Fold change /veh NR4A2 (11747474_a_at) / RFU ABCC12 (11746883_a_at) / Fold change /veh ABCC12 (11746883_a_at) / RFU TMEM136 (11760407_x_at) / Fold change /veh TMEM136 (11760407_x_at) / RFU CLDN22 /// WWC2 (11732394_at) / Fold change /veh CLDN22 /// WWC2 (11732394_at) / RFU HLA-DPB1 (11760878_x_at) / Fold change /veh HLA-DPB1 (11760878_x_at) / RFU SPINT1 (11716480_a_at) / Fold change /veh SPINT1 (11716480_a_at) / RFU GAP43 (11754022_s_at) / Fold change /veh GAP43 (11754022_s_at) / RFU A4GNT (11735810_at) / Fold change /veh A4GNT (11735810_at) / RFU PRB3 (11715151_x_at) / Fold change /veh PRB3 (11715151_x_at) / RFU TUBB4B (11761932_at) / Fold change /veh TUBB4B (11761932_at) / RFU CAPN14 (11732068_a_at) / Fold change /veh CAPN14 (11732068_a_at) / RFU TMCC2 (11721928_a_at) / Fold change /veh TMCC2 (11721928_a_at) / RFU IRGQ (11745062_a_at) / Fold change /veh IRGQ (11745062_a_at) / RFU FAM174B (11720279_a_at) / Fold change /veh FAM174B (11720279_a_at) / RFU TMPRSS4 (11748680_a_at) / Fold change /veh TMPRSS4 (11748680_a_at) / RFU FAM212B (11763350_a_at) / Fold change /veh FAM212B (11763350_a_at) / RFU PLEKHG5 (11743358_a_at) / Fold change /veh PLEKHG5 (11743358_a_at) / RFU ZSCAN30 (11745921_a_at) / Fold change /veh ZSCAN30 (11745921_a_at) / RFU CMKLR1 (11741424_a_at) / Fold change /veh CMKLR1 (11741424_a_at) / RFU LOC101060620 /// MAPK8IP1 (11723275_at) / Fold change /veh LOC101060620 /// MAPK8IP1 (11723275_at) / RFU SPTSSB (11747773_x_at) / Fold change /veh SPTSSB (11747773_x_at) / RFU PRSS12 (11739890_at) / Fold change /veh PRSS12 (11739890_at) / RFU BIN1 (11741810_x_at) / Fold change /veh BIN1 (11741810_x_at) / RFU WNT11 (11732464_a_at) / Fold change /veh WNT11 (11732464_a_at) / RFU C10orf10 (11716521_a_at) / Fold change /veh C10orf10 (11716521_a_at) / RFU C5orf56 (11738089_at) / Fold change /veh C5orf56 (11738089_at) / RFU CYB561 (11721691_x_at) / Fold change /veh CYB561 (11721691_x_at) / RFU ANKRD19P (11752326_a_at) / Fold change /veh ANKRD19P (11752326_a_at) / RFU OR2T12 /// OR2T33 /// OR2T8 (11738714_s_at) / Fold change /veh OR2T12 /// OR2T33 /// OR2T8 (11738714_s_at) / RFU VCAN (11748164_a_at) / Fold change /veh VCAN (11748164_a_at) / RFU JSRP1 (11732532_at) / Fold change /veh JSRP1 (11732532_at) / RFU KRTAP10-11 (11738290_x_at) / Fold change /veh KRTAP10-11 (11738290_x_at) / RFU MYO3A (11730013_a_at) / Fold change /veh MYO3A (11730013_a_at) / RFU EBF3 (11725865_a_at) / Fold change /veh EBF3 (11725865_a_at) / RFU CAMK2N1 (11719241_x_at) / Fold change /veh CAMK2N1 (11719241_x_at) / RFU C5orf56 (11738088_a_at) / Fold change /veh C5orf56 (11738088_a_at) / RFU OLFML3 (11715873_a_at) / Fold change /veh OLFML3 (11715873_a_at) / RFU LOC100653217 /// NTM (11731650_a_at) / Fold change /veh LOC100653217 /// NTM (11731650_a_at) / RFU MAPK11 (11762145_a_at) / Fold change /veh MAPK11 (11762145_a_at) / RFU FIZ1 (11724087_x_at) / Fold change /veh FIZ1 (11724087_x_at) / RFU OASL (11726364_x_at) / Fold change /veh OASL (11726364_x_at) / RFU SOX15 (11748057_x_at) / Fold change /veh SOX15 (11748057_x_at) / RFU CD79A (11719716_a_at) / Fold change /veh CD79A (11719716_a_at) / RFU HIST1H1D (11736915_at) / Fold change /veh HIST1H1D (11736915_at) / RFU CASKIN2 (11723855_a_at) / Fold change /veh CASKIN2 (11723855_a_at) / RFU LOC730098 (11760151_x_at) / Fold change /veh LOC730098 (11760151_x_at) / RFU OR4N2 (11742367_at) / Fold change /veh OR4N2 (11742367_at) / RFU PRRT2 (11749266_a_at) / Fold change /veh PRRT2 (11749266_a_at) / RFU SNX32 (11753110_a_at) / Fold change /veh SNX32 (11753110_a_at) / RFU CDHR5 (11726645_a_at) / Fold change /veh CDHR5 (11726645_a_at) / RFU RCAN1 (11760418_a_at) / Fold change /veh RCAN1 (11760418_a_at) / RFU FAM167A (11723789_a_at) / Fold change /veh FAM167A (11723789_a_at) / RFU FAM26E (11764081_at) / Fold change /veh FAM26E (11764081_at) / RFU ISYNA1 (11749810_s_at) / Fold change /veh ISYNA1 (11749810_s_at) / RFU ACY1 (11761880_at) / Fold change /veh ACY1 (11761880_at) / RFU 11764098_at / Fold change /veh 11764098_at / RFU SAMD14 (11745864_x_at) / Fold change /veh SAMD14 (11745864_x_at) / RFU NPB (11741838_a_at) / Fold change /veh NPB (11741838_a_at) / RFU TMPRSS6 (11731388_a_at) / Fold change /veh TMPRSS6 (11731388_a_at) / RFU KRTAP10-2 (11738614_at) / Fold change /veh KRTAP10-2 (11738614_at) / RFU ARHGAP8 /// PRR5-ARHGAP8 (11727945_x_at) / Fold change /veh ARHGAP8 /// PRR5-ARHGAP8 (11727945_x_at) / RFU KRTAP5-7 /// NADSYN1 (11734609_at) / Fold change /veh KRTAP5-7 /// NADSYN1 (11734609_at) / RFU RASL12 (11751679_a_at) / Fold change /veh RASL12 (11751679_a_at) / RFU CDKN2B (11736163_a_at) / Fold change /veh CDKN2B (11736163_a_at) / RFU PRF1 (11729649_at) / Fold change /veh PRF1 (11729649_at) / RFU, ZNF638 /// ZNF638-IT1 / Fold change vs veh, ZNF638 /// ZNF638-IT1 / RFU, PANK3 / Fold change vs veh, PANK3 / RFU, SH3YL1 / Fold change vs veh, SH3YL1 / RFU, ZEB2 / Fold change vs veh, ZEB2 / RFU, NRIP1 / Fold change vs veh, NRIP1 / RFU, PTTG1IP / Fold change vs veh, PTTG1IP / RFU, CAPN2 / Fold change vs veh, CAPN2 / RFU, MED14 / Fold change vs veh, MED14 / RFU, SNORA58 / Fold change vs veh, SNORA58 / RFU, C1orf63 / Fold change vs veh, C1orf63 / RFU, LRRFIP1 / Fold change vs veh, LRRFIP1 / RFU, NDUFAF7 / Fold change vs veh, NDUFAF7 / RFU, SLC12A2 / Fold change vs veh, SLC12A2 / RFU, IBTK / Fold change vs veh, IBTK / RFU, ESF1 / Fold change vs veh, ESF1 / Fold change vs veh, TMEM50B / RFU, TAOK1 / Fold change vs veh, TAOK1 / RFU, ACBD3 / Fold change vs veh, ACBD3 / RFU, TMA16 / Fold change vs veh, TMA16 / RFU, RWDD3 / Fold change vs veh, RWDD3 / RFU, BCAT1 / Fold change vs veh, BCAT1 / RFU, EDEM3 / Fold change vs veh, EDEM3 / RFU, TMEM33 / Fold change vs veh, TMEM33 / RFU, WDR75 / Fold change vs veh, WDR75 / RFU, AHCTF1 / Fold change vs veh, AHCTF1 / RFU, TFRC / Fold change vs veh, TFRC / RFU, ZDHHC17 / Fold change vs veh, ZDHHC17 / RFU, NOM1 / Fold change vs veh, NOM1 / RFU, ARL8B / Fold change vs veh, ARL8B / RFU, ZBTB11 / Fold change vs veh, ZBTB11 / RFU, TAMM41 / Fold change vs veh, TAMM41 / RFU, KIAA1704 /// LOC100996395 / Fold change vs veh, KIAA1704 /// LOC100996395 / RFU, ING1 / Fold change vs veh, ING1 / RFU, TRMT61B / Fold change vs veh, TRMT61B / RFU, FUBP3 / Fold change vs veh, FUBP3 / RFU, TP53 / Fold change vs veh, TP53 / RFU, TNKS2 / Fold change vs veh, TNKS2 / RFU, ZFP14 / Fold change vs veh, ZFP14 / RFU, ACTR2 / Fold change vs veh, ACTR2 / RFU, PPP3R1 / Fold change vs veh, PPP3R1 / RFU, PIK3R1 / Fold change vs veh, PIK3R1 / RFU, HNRNPA1 / Fold change vs veh, HNRNPA1 / RFU, RNF170 / Fold change vs veh, RNF170 / RFU, ZNF28 / Fold change vs veh, ZNF28 / RFU, RNGTT / Fold change vs veh, RNGTT / RFU, OGT / Fold change vs veh, OGT / RFU, BRD1 / Fold change vs veh, BRD1 / RFU, MARS / Fold change vs veh, MARS / RFU, ZNF655 / Fold change vs veh, ZNF655 / RFU, FAHD1 / Fold change vs veh, FAHD1 / RFU, BDP1 / Fold change vs veh, BDP1 / RFU, LRRCC1 / Fold change vs veh, LRRCC1 / RFU, ARID1A / Fold change vs veh, ARID1A / RFU, ZNF146 / Fold change vs veh, ZNF146 / RFU, ZNF330 / Fold change vs veh, ZNF330 / RFU, GPN3 / Fold change vs veh, GPN3 / RFU, C9orf123 / Fold change vs veh, C9orf123 / RFU, N4BP2L2 / Fold change vs veh, N4BP2L2 / RFU, ARFIP1 / Fold change vs veh, ARFIP1 / RFU, FAM179B / Fold change vs veh, FAM179B / RFU, BCL10 / Fold change vs veh, BCL10 / RFU, UHRF1BP1L / Fold change vs veh, UHRF1BP1L / RFU, BET1 / Fold change vs veh, BET1 / RFU, CNOT2 / Fold change vs veh, CNOT2 / RFU, ZNF268 / Fold change vs veh, ZNF268 / Fold change vs veh, ZNF507 / RFU, DGCR2 / Fold change vs veh, DGCR2 / RFU, WDSUB1 / Fold change vs veh, WDSUB1 / Fold change vs veh, HSP90B1 /// MIR3652 / RFU, ADSS / Fold change vs veh, ADSS / RFU, GK / Fold change vs veh, GK / RFU, ZNF148 / Fold change vs veh, ZNF148 / RFU, TAF9 / Fold change vs veh, TAF9 / RFU, SLC1A5 / Fold change vs veh, SLC1A5 / RFU, SLMO2 / Fold change vs veh, SLMO2 / RFU, ABCC4 / Fold change vs veh, ABCC4 / RFU, LOC101060439 /// RAP1B / Fold change vs veh, LOC101060439 /// RAP1B / RFU, RFX7 / Fold change vs veh, RFX7 / RFU, GTPBP10 / Fold change vs veh, GTPBP10 / RFU, CNEP1R1 / Fold change vs veh, CNEP1R1 / RFU, BIVM-ERCC5 /// ERCC5 / Fold change vs veh, BIVM-ERCC5 /// ERCC5 / RFU, ILF3 / Fold change vs veh, ILF3 / RFU 11762660_at / Fold change /veh 11762660_at / RFU VCAN (11757783_s_at) / Fold change /veh VCAN (11757783_s_at) / RFU DDX43 (11728927_at) / Fold change /veh DDX43 (11728927_at) / RFU KRT8 (11758188_x_at) / Fold change /veh KRT8 (11758188_x_at) / RFU NKD1 (11759106_at) / Fold change /veh NKD1 (11759106_at) / RFU SRD5A1 (11742802_a_at) / Fold change /veh SRD5A1 (11742802_a_at) / RFU TPSAB1 /// TPSB2 (11721975_s_at) / Fold change /veh TPSAB1 /// TPSB2 (11721975_s_at) / RFU GSTM3 (11746129_a_at) / Fold change /veh GSTM3 (11746129_a_at) / RFU IL23R (11737362_x_at) / Fold change /veh IL23R (11737362_x_at) / RFU TMEM51 (11727254_a_at) / Fold change /veh TMEM51 (11727254_a_at) / RFU PIWIL2 (11732686_x_at) / Fold change /veh PIWIL2 (11732686_x_at) / RFU ORM1 (11744905_x_at) / Fold change /veh ORM1 (11744905_x_at) / RFU CCDC152 (11743942_at) / Fold change /veh CCDC152 (11743942_at) / RFU ECM1 (11717891_a_at) / Fold change /veh ECM1 (11717891_a_at) / RFU IL23R (11748794_a_at) / Fold change /veh IL23R (11748794_a_at) / RFU TNFAIP8L3 (11732012_x_at) / Fold change /veh TNFAIP8L3 (11732012_x_at) / RFU MBOAT4 (11741988_at) / Fold change /veh MBOAT4 (11741988_at) / RFU 11764193_at / Fold change /veh 11764193_at / RFU TMEM53 (11763286_at) / Fold change /veh TMEM53 (11763286_at) / RFU MAGEB2 (11727129_at) / Fold change /veh MAGEB2 (11727129_at) / RFU TMEM200A (11744735_a_at) / Fold change /veh TMEM200A (11744735_a_at) / RFU CCDC152 (11751479_a_at) / Fold change /veh CCDC152 (11751479_a_at) / RFU FAM211A (11726209_a_at) / Fold change /veh FAM211A (11726209_a_at) / RFU RGS16 (11746705_a_at) / Fold change /veh RGS16 (11746705_a_at) / RFU VCAN (11755009_s_at) / Fold change /veh VCAN (11755009_s_at) / RFU RHOB (11743442_s_at) / Fold change /veh RHOB (11743442_s_at) / RFU RGS16 (11720943_a_at) / Fold change /veh RGS16 (11720943_a_at) / RFU RGS16 (11720944_at) / Fold change /veh RGS16 (11720944_at) / RFU, VPS4B / Fold change vs veh, VPS4B / RFU, CREB1 / Fold change vs veh, CREB1 / RFU, DNAJC13 / Fold change vs veh, DNAJC13 / RFU, GNAQ / Fold change vs veh, GNAQ / RFU, CDK5R1 / Fold change vs veh, CDK5R1 / RFU, ZRANB3 / Fold change vs veh, ZRANB3 / RFU, CUL4A / Fold change vs veh, CUL4A / RFU, CCNY / Fold change vs veh, CCNY / RFU, UFL1 / Fold change vs veh, UFL1 / RFU, COG3 / Fold change vs veh, COG3 / RFU, DIAPH2 / Fold change vs veh, DIAPH2 / RFU, SKA2 / Fold change vs veh, SKA2 / RFU, AFF3 / Fold change vs veh, AFF3 / RFU, LMF1 / Fold change vs veh, LMF1 / RFU, IPO11 / Fold change vs veh, IPO11 / RFU, DFFB / Fold change vs veh, DFFB / RFU, FOXP1 / Fold change vs veh, FOXP1 / RFU, CARD8 / Fold change vs veh, CARD8 / RFU, STRN3 / Fold change vs veh, STRN3 / RFU, ADK / Fold change vs veh, ADK / RFU, RASSF2 / Fold change vs veh, RASSF2 / RFU, WIPF1 / Fold change vs veh, WIPF1 / RFU, LARP1B / Fold change vs veh, LARP1B / RFU, RASA1 / Fold change vs veh, RASA1 / RFU, RB1 / Fold change vs veh, RB1 / RFU, PPFIA1 / Fold change vs veh, PPFIA1 / RFU, MAT2A / Fold change vs veh, MAT2A / RFU, CCT5 / Fold change vs veh, CCT5 / RFU, WDR92 / Fold change vs veh, WDR92 / RFU, CUX1 / Fold change vs veh, CUX1 / RFU, TTC7A / Fold change vs veh, TTC7A / RFU, TMEM135 / Fold change vs veh, TMEM135 / RFU, DEPTOR / Fold change vs veh, DEPTOR / RFU, CPM / Fold change vs veh, CPM / RFU, DNAJB6 / Fold change vs veh, DNAJB6 / RFU, CACNA2D3 / Fold change vs veh, CACNA2D3 / RFU, DTX4 / Fold change vs veh, DTX4 / RFU, TFCP2 / Fold change vs veh, TFCP2 / RFU, GMCL1 /// GMCL1P1 / Fold change vs veh, GMCL1 /// GMCL1P1 / RFU, AEBP2 / Fold change vs veh, AEBP2 / RFU, SNHG1 /// SNORD22 /// SNORD25 /// SNORD26 /// SNORD27 /// SNORD28 /// SNORD29 /// SNORD31 / Fold change vs veh, SNHG1 /// SNORD22 /// SNORD25 /// SNORD26 /// SNORD27 /// SNORD28 /// SNORD29 /// SNORD31 / Fold change (Aza/veh), C12orf56 (ProbeSet 11735607_a_at) / Fold change (ACY-1035/veh), C12orf56 (ProbeSet 11735607_a_at) / Fold change (Aza/veh), FGFR1OP (ProbeSet 11751329_s_at) / Fold change (ACY-1035/veh), FGFR1OP (ProbeSet 11751329_s_at) / Fold change (Aza/veh), VPS36 (ProbeSet 11739960_a_at) / Fold change (ACY-1035/veh), VPS36 (ProbeSet 11739960_a_at) / RFU SYPL1 (11715823_x_at) / Fold change /veh SYPL1 (11715823_x_at) / RFU IGFBP7 (11715501_s_at) / Fold change /veh IGFBP7 (11715501_s_at) / RFU REEP3 (11722064_at) / Fold change /veh REEP3 (11722064_at) / RFU IGLL1 (11728026_x_at) / Fold change /veh IGLL1 (11728026_x_at): dose or concentration left out as unconfirmed
Conditions: ProbeSet 11729384_s_at; LIST D

Nc1ccc(-c2cccs2)cc1NC(=O)c1ccc2c(c1)cc(C1CC1)n2CCN1CCOCC1 [ACY-1035]
Fold change vs veh, CCNY: 0.87
